From patent US20080300298A1, “Honokiol Derivates For the Treatment of Proliferative Disorders” (priority 2005, published 2008)

What was measured:
[1] = tested on: PBM cells; assay: cytotoxicity assay (MTT); type: cell-based, human
Experimental: (§1) The cytotoxicity of the honokiol and analogues thereof were assessed in human PBM, CEM and Vero cells (Table 4). Compounds can be evaluated for their potential toxic effects on uninfected human PBM cells, in CEM (T-lymphoblastoid cell line obtained from American Type Culture Collection, Rockville, Md.) and Vero (African green monkey kidney) cells. PBM cells can be obtained from whole blood of healthy seronegative donors (HIV-1) by single-step Ficoll-Hypaque discontinous gradient centrifugation. […] All of the cells can be plated in 96-well cell culture plates containing ten-fold serial dilutions of the test drug. […] At the end of incubation, MTT tetrazolium dye solution (Cell titer 96®, Promega, Madison, Wis.) can be added to each well and incubated overnight. The reaction can be stopped with stop solubilization solution (Promega, Madison, Wis.). […] The plates can be read at a wavelength of 570 nm using an ELISA plate reader (Bio-tek instruments, Inc., Winooski, Vt., Model #EL 312e). The 50% inhibition concentration (IC50) can be determined from the concentration-response curve using the median effect method.

[2] = tested on: HIV-1; assay: HIV assay in PBM cells (RT activity); type: cell-based; conditions: HIV-1 in human PBM cells
Experimental: The antiviral activity of the synthesized compounds and honokiol were evaluated against HIV-1 in human peripheral blood mononuclear (PBM) cells (Table 4).
Human peripheral blood mononuclear (PBM) cells (which can be obtained from Atlanta Red Cross) can be isolated by Ficoll-Hypaque discontinuous gradient centrifugation from healthy seronegative donors. Cells can be stimulated with phytohemagglutinin A (Difco, Sparks, Md.) for 2-3 days prior to use. HIV-1, such as HIV-1LAI can be obtained from the Centers for Disease Control and Prevention (Atlanta, Ga.), and can be used as the standard reference virus for the antiviral assays. The molecular infectious clones HIV-1xxBru and HIV-1M184Vpin can be obtained from Dr. John Mellors (University of Pittsburgh). Infections can be done in bulk for one hour, either with 100 TCID50/1×10^7 cells for a flask (T25) assay or with 200 TCID50/6×10^5 cells/well for a 24 well plate assay. Cells can be added to a plate or flask containing a ten-fold serial dilution of the test compound. Assay medium can be RPMI-1640 supplemented with heat inactivated 16% fetal bovine serum, 1.6 mM L-glutamine, 80 IU/ml penicillin, 80 μg/ml streptomycin, 0.0008% DEAE-Dextran, 0.045% sodium bicarbonate, and 26 IU/ml recombinant interleukin-2 (Chiron Corp, Emeryville, Calif.). AZT can be used as a positive control for the assay. Untreated and uninfected PBM cells can be grown in parallel at equivalent cell concentrations as controls. The cell cultures can be maintained in a humidified 5% CO2-air at 37° C. for 5 days and supernatants can be collected for reverse transcriptase (RT) activity.
Supernatants can be centrifuged at 12,000 rpm for 2 hours to pellet the virus. The pellet can be solubilized with vortexing in 100 μl virus solubilization buffer (VSB) containing 0.5% Triton X-100, 0.8 M NaCl, 0.5 mM phenylmethylsulfonyl fluoride, 20% glycerol, and 0.05 M Tris, pH 7.8. Ten μL of each sample can be added to 75 μL RT reaction mixture (0.06 M Tris, pH 7.8, 0.012 M MgCl2, 0.006 M dithiothreitol, 0.006 mg/ml poly (rA)n, oligo (dT)12-18, 96 μg/ml dATP, and 1 μM of 0.08 mCi/ml ^3H-thymidine triphosphate (Moravek Biochemicals, Brea, Calif.) and can be incubated at 37° C. for 2 hours. The reaction can be stopped by the addition of 100 μL 10% trichloroacetic acid containing 0.05% sodium pyrophosphate. The acid insoluble product can be harvested onto filter paper using a Packard Harvester (Meriden, Conn.), and the RT activity can be read on a Packard Direct Beta Counter (Meriden, Conn.). The RT results can be expressed in counts per minute (CPM) per milliliter. The antiviral 50% effective concentration (EC50) and 90% effective concentration (EC90) can be determined from the concentration-response curve using the median effect method (Belen'kii, S. M.; Schinazi, R. S. Multiple drug effect analysis with confidence interval. Antiviral. Res. 1994, 25, 1-11).

[3] = tested on: CEM (T-lymphoblastoid cell line); assay: cytotoxicity assay (MTT); type: cell-based
Experimental: as §1

SMILES: Cc1cn([C@H]2C[C@H](N=[N+]=[N-])[C@@H](CO)O2)c(=O)[nH]c1=O [AZT, reference compound]
- EC50 [1]: > 100000 nM
- EC50 ([2]; read-out: Activity anti-VIH-1 on PBM cells EC50): 14 nM
- EC90 ([2]; read-out: Activity anti-VIH-1 on PBM cells EC90): 49 nM
- EC50 [3]: 14300 nM
